One may read the Km as the substrate concentration at which the rate is half of its maximum. By kcat is commonly meant the number of substrate molecules converted per active site and unit of time at saturation.

Among the data in PMC4511154 (Journal of molecular microbiology and biotechnology, 2015) are remaining activity, Km and kcat values, retold here.

Series [1] has as its target TagK-TF^His6 (Bacillus licheniformis, UniProt Q65EY9). In words: coupled assay LacD/TPI/G3PDH, NADH oxidation at […] nm. The conditions noted are these: read-out: % residual activity at 10 mM. It counts as biochemical.
Substrate in series [2]: O=C(COP(=O)(O)O)[C@@H](O)[C@@H](O)[C@H](O)CO
In words: purified protein. The note with it: 2 mM ATP, 10 mM MgCl2, 50 mM Tris-HCl pH 8.0, 25 °C. In kind it is biochemical, Bacillus licheniformis.

Consider `O=P(O)(O)OC[C@H]1OC(O)(CO)[C@@H](O)[C@@H]1O` (stereo partly drawn) [Fru-6P, D-fructose 6-phosphate], for which the remaining activity at 10000 µM in series [1] was found to be 69%.

Consider `O=P(O)(O)OC[C@H]1OC(O)(CO)[C@@H](O)[C@H]1O` (stereo partly drawn) [Tag-6P, D-tagatose-6-phosphate], for which the remaining activity at 10000 µM in series [1] is 43%.

B1: TagK-TF^His6 (Bacillus licheniformis DSM 13 = ATCC 14580) (protein)
chain: MIYTCTMNTAVDLFVETDELLPDVVNRTKDEDYQPNGKGVNISFMLKRLGLDNTALGFTGGFTGRFIENELLNEKIVTDFVEVEGISRINIFINSTREFKIVNKGPLISEARKQELINKIRQIPPGRFLFISGSLPRGVPDDMYLSLSEIAAENKLKLILDISSPVLLDCLSYHPYLIKPNEQELAAFFSRKKALSEEEIIHCGKELLDRGAERVLISRGKDGALYLDRQRTLKATAAKGKVVNTACAGDAMLAVFVGKQELGCSVPEALRHASAAGSLTAFSKGLGDVSKLDQTASQIQITHL
For the molecule B1, in series [2], the Km was found to be 3.2 ± 0.4 mM and the kcat came out at 0.44 ± 0.01 s⁻¹.
